Assay: Human HepG2 cell viability assay in 384 well format
Format: toxicity, cell-based
Set-up: dose 125 nL, time 70.5 hour; cytotoxicity at 70.5 h: concentration not given beside the values
Details: HepG2 cells, read-out: Inhibition

| SMILES | cytotoxicity at 70.5 h [%] |
| --- | --- |
| COC(=O)CCC(=O)N1CCc2nc(C(=O)N3CCOCC3)sc2CC1 | 1.24 |
| CCO[C@@H]1CC[C@H]2[C@H]1OCCN2C(=O)c1ccc(OC)c(F)c1 | -4.73 |
| CC(=O)N1CCOCC2(C1)CN(S(C)(=O)=O)CCO2 (centres undefined) | -9.18 |
| COc1cc(C(=O)N2CCO[C@H]3[C@H](OCC4CC4)CC[C@@H]32)ccc1F | -5.96 |
| CCn1cc2c(n1)C(COCC1CC1)CN(C(=O)c1ccco1)C2 (centres undefined) | -10.5 |
| CCOCC1CN(C(=O)c2cnoc2C)Cc2cn(CC3CC3)nc21 (centres undefined) | -8.9 |
| COC(=O)CCC(=O)N1CCc2nc(C(=O)N(C)C)sc2CC1 | -10.1 |
| CC(C)N1CCc2ncn(C(C)C)c2C1C(=O)N1CCN(C)CC1 (centres undefined) | 6.34 |
| CCOCC1COCCC12CCN(C(=O)C1=CCCC1)CC2 (centres undefined) | -5.05 |
| COCC1COCCC12CCN(C(=O)CC1=CCCCC1)CC2 (centres undefined) | -2.79 |
| CCS(=O)(=O)N1C[C@H]2CN(c3cnn(C)c3)C(=O)[C@H]2C1 | -5.61 |
| CN(C)C(=O)[C@H]1C[C@@H]2CN(C(=O)NCC3CCCCC3)C[C@H]1O2 | -0.82 |
| O=C(NCC1CCCCC1)N1C[C@H]2C[C@H](C(=O)N3CCCC3)[C@@H](C1)O2 | -1.84 |
| CC(=O)NCC(=O)N1CCc2c(CN(C)C)nn(C(C)C)c2C1 | -2.84 |
| N#Cc1ccc2c(c1)CN(C(=O)c1nc[nH]n1)C2c1cnco1 (centres undefined) | -2.48 |
| CC1NC(=O)COC12CCN(C(=O)Cc1ccsc1)CC2 (centres undefined) | 4.29 |
| CN1C[C@H](COCC2CC2)[C@H]2CCN(Cc3ccco3)CC[C@H]2C1=O | 7.68 |
| Cn1cc(N2C[C@@H]3CN(S(=O)(=O)C4CC4)C[C@@H]3C2=O)cn1 | 2.74 |
| Cc1ncnc2c1CCN(C(=O)Cc1cccc(F)c1)CC2 | 0.979 |
| CC(C)n1c(C(=O)N2CCCC2)nc2c1CCN(c1ncccn1)C2 | 0.473 |
| COc1ncnc2c1CCN(C(=O)NCc1cccc(F)c1)CC2 | -6.04 |
| CCOCC1COCCC12CCN(C(=O)CC1=CCCCC1)CC2 (centres undefined) | -5.12 |
| CC1N(C)C(=O)COC12CCN(C(=O)Cc1ccsc1)CC2 (centres undefined) | -5.66 |
| O=C(C1CC1)N1CCC2(CC1)CNCc1ccccc12 | 18.9 |
| CN1C(=O)C2(CCN(S(=O)(=O)C3CC3)CC2)c2ccccc21 | -2.07 |

| SMILES | cytotoxicity at 70.5 h [%] |
| --- | --- |
| c1cnc(N2C[C@H](OCC3CCOCC3)[C@H]3COC[C@H]32)nc1 | -1.34 |
| COc1ccc(-c2cnc3n2CCNC32CCN(S(C)(=O)=O)CC2)cc1 | -6.19 |
| Cc1ccc(CNC(=O)c2nc3c(o2)CN(c2ncccn2)C3)o1 | -2.56 |
| CC(C)N(C)[C@@H]1CCN(Cc2ccoc2)[C@H]1Cc1ccccc1 | -1.21 |
| CN1CCN(CCO)C(=O)C12CCN(c1nccs1)CC2 | -2.35 |
| CS(=O)(=O)N1CCn2c(C(=O)N3CCOCC3)cnc2C1 | -0.596 |
| CNC(=O)[C@@H]1CC[C@@H]2[C@@H](CCN2C(=O)N(C)C)O1 | -0.00257 |
| CS(=O)(=O)N1CC[C@H]2O[C@H](C(=O)NCc3cccnc3)CC[C@H]21 | 0.629 |
| CCCS(=O)(=O)N1CCC2(CC(C(=O)NCc3cccnc3)=NO2)C1 (centres undefined) | -10.3 |
| O=C(NCCc1ccncc1)[C@H]1CC[C@@H]2[C@@H](CCN2C2CCC2)O1 | -7.73 |
| CNC(=O)N1CC[C@@H]2CN(Cc3cccc(Cl)c3)S(=O)(=O)[C@@H]2CC1 | -4.42 |
| COCC(=O)N1CCC2(CC(C(=O)NCc3cccnc3)=NO2)C1 (centres undefined) | -5.23 |
| CCCS(=O)(=O)N1CCOC2(CCCN(c3ccc(C)nn3)C2)C1 (centres undefined) | -6.62 |
| CS(=O)(=O)N1CC[C@H]2O[C@@H](C(=O)NCc3ccco3)CC[C@H]21 | -12 |
| Cc1ccsc1CN1CC[C@H]2O[C@H](C(=O)N3CCCO3)CC[C@H]21 | -8.24 |
| O=C(c1cccc(F)c1)N1C[C@H]2CCCC(OCc3cccnc3)[C@H]2C1 (some centres undefined) | -7.83 |
| CN(C)C(=O)N1CCC2(CC1)NC(=O)c1ccccc12 | -2.99 |
| O=C([C@H]1COC[C@H]2CN(CC3CCCC3)C[C@H]21)N1CCOCC1 | 2.13 |
| CCOCC1CN(C(=O)c2cnoc2C)Cc2cn(C)nc21 (centres undefined) | -5.33 |
| CN(C)Cc1nn(C)c2c1CCN(C(=O)CC1CC1)C2 | 39.3 |
| O=S(=O)(NC1CCC12CCN(CC1CC1)CC2)c1ccccc1 (centres undefined) | 11.7 |
| O=C(NC1CC1)N1CC[C@H]2[C@H]1CCN2c1nncs1 | 6.09 |
| O=C(C1CCOCC1)N1CC[C@H]2[C@H]1CCN2c1nncs1 | -0.658 |
| CC(C)n1nc(CN(C)C)c2c1CN(C(=O)CC1CC1)CC2 | -4.55 |
| O=S(=O)(NC1CCC12CCN(CC1CCOCC1)CC2)c1ccccc1 (centres undefined) | -2.17 |

| SMILES | cytotoxicity at 70.5 h [%] |
| --- | --- |
| CC(C)CN1CCN(C)C2(CCN(c3nccs3)CC2)C1=O | 33.2 |
| O=C(NC1CC2(CCN(CCO)CC2)c2ccccc21)c1ccno1 (centres undefined) | 17.6 |
| CN1CC2(CCN(S(=O)(=O)C3CC3)CC2)c2ccccc21 | 11 |
| CCOCC1CN(C(=O)COc2ccccc2C)Cc2ncn(C)c21 (centres undefined) | -4.87 |
| CCOCC(=O)N1Cc2[nH]nc(COCC3CC3)c2C1 | 0.817 |
| CC(C)C(=O)N1CCCC2(CC(C(=O)NCc3cccnc3)=NO2)C1 (centres undefined) | -2.66 |
| O=C([C@@H]1CC[C@@H]2[C@@H](CCN2Cc2cccs2)O1)N1CCCCO1 | -7.83 |
| O=C(N1CCCC1)N1CCO[C@H]2[C@@H](OCc3cccnc3)CC[C@@H]21 | -8.11 |
| Cc1ccc2c(n1)N(CC1CC1)CCN(C(=O)NC1CC1)C2 | -7.71 |
| Cn1cc(C(=O)N[C@@H]2CN(Cc3ccc(F)cc3)[C@@H]3CCCO[C@@H]32)cn1 | -4.56 |
| CC(C)n1cnc2c1C(C(=O)NCCO)N(Cc1ccccc1)CC2 (centres undefined) | -8.21 |
| O=C(C1=CCCCC1)N1CCO[C@H]2[C@H](Oc3ccccn3)CC[C@@H]21 | -9.07 |
| COc1cc(N2C[C@H]3CCN(CCN4CCCC4)C[C@H]3C2)ncn1 | -1.14 |
| Cc1cccc(CN2CCC3(CC2)CC(Oc2cccnc2)C3)n1 | -0.691 |
| c1ccc(CO[C@@H]2C[C@H]3CN(c4ncccn4)CCN3C2)cc1 | 5.2 |
| Cc1cnc(N2CCN3C[C@H](OCc4ccccn4)C[C@H]3C2)nc1 | -2.63 |
| CC(C)n1nc(CN(C)C)c2c1CN(CC1CC1)CC2 | 2.39 |
| COCCN1CCO[C@@H]2CN(Cc3ccc(C)o3)C[C@@H]2C1 | 1.59 |
| c1cncc(CN2CCOC(c3ncn4c(C5CC5)cccc34)C2)c1 (centres undefined) | -3.57 |
| Cn1cncc1CNC1CC2(CCN(CC3CC3)CC2)c2ccccc21 (centres undefined) | -2.23 |
| c1cc(C2CC2)n2cnc(C3CN(Cc4ccncc4)CCO3)c2c1 (centres undefined) | -1.44 |
| CS(=O)(=O)N1CCC2(CC1)NCCn1c(-c3ccccc3)cnc12 | -7.68 |
| COCCN1CC[C@]2(CN(Cc3ccccn3)C[C@H]2C)C1=O | 1.87 |
| c1cnc(N2CCOCC3(CCCN(CC4CCOCC4)C3)C2)nc1 (centres undefined) | -1.71 |

Source: ChEMBL document CHEMBL3507680, “University of Dundee, Gates Library screen for HepG2 cell viability”
